Reference: patent publication US20250163047A1, “HETEROCYCLIC COMPOUNDS, COMPOSITIONS THEREOF, AND METHODS OF TREATMENT THEREWITH” (BeiGene, Ltd., priority 2022, published 2025)
pIC50: −log10 of the molar value.

Columns and labels:
Cbl-b (aa36-427) = biological target: T1, Cbl-b (aa36-427) (Homo sapiens, UniProt Q13191); assay: Co-expressed Cbl-b with BirA biochemical assay (CBLB/E2-Ub binding, HTRF); settings: 0.6 nM Cbl-b co-expressed with BirA, HTRF; read-out: co-express CBLB/E2-Ub-binding assay IC50
T1 construct: Cbl-b (aa36-427, in-house); made in house
T1 sequence (Q13191 36-427): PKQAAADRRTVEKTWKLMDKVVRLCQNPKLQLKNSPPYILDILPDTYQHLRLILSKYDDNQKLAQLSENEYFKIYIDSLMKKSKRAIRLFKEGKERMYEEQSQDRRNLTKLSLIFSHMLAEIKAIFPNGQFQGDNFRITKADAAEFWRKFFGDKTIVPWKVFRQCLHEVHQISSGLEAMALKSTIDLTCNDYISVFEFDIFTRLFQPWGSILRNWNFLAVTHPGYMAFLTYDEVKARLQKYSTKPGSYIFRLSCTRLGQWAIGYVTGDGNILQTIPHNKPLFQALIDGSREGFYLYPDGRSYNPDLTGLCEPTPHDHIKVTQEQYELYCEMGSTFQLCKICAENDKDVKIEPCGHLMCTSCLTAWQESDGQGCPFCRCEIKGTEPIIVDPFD
Description: (§1) The assay in the absence of a Cbl-b/Cbl inhibitor, where phosphorylation of Cbl-b/Cbl by the Src kinase allows UbcH5B-Ub to bind to Cbl-b/Cbl and brings the Bodipy-Fluorescein tagged ubiquitin in proximity to the streptavidin-terbium bound to the N-terminal biotinylated Avi-tagged Cbl-b/Cbl. […] The lack of a FRET signal indicates Cbl-b/Cbl is inhibited by the Cbl-b/Cbl inhibitor.

Cbl (aa49-434) = biological target: T2, Cbl (aa49-434) (Homo sapiens, UniProt P22681); assay: Co-expressed Cbl with BirA biochemical assay (CBL/E2-Ub binding, HTRF); settings: 0.6 nM Cbl co-expressed with BirA, read-out: co-express CBL/E2-Ub-binding assay IC50
T2 construct: Cbl (aa49-434, in-house); made in house
T2 sequence (P22681 49-434): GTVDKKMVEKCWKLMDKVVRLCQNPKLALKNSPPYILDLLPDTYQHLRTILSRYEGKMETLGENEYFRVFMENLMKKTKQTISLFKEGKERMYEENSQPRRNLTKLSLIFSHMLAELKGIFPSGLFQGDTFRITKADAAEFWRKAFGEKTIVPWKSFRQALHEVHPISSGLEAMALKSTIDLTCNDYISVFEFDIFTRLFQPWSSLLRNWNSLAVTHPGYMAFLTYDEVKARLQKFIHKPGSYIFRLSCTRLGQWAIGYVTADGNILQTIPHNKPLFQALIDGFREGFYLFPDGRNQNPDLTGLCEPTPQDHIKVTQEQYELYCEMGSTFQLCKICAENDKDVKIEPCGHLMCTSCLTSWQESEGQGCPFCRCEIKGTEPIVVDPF
Description: as §1

Compound | pIC50 (Cbl-b (aa36-427)) | pIC50 (Cbl (aa49-434))
Cn1cnnc1[C@]1(c2cncc(NC(=O)c3cc(CNC4(C)CCC4)c4[nH]cc(Cl)c4n3)c2)C[C@H](C)C1 [Compound B52, 3-chloro-N-(5-((1s, 3s)-3-methyl-1-(4-methyl-4H-1,2,4-triazol-3-yl)cyclobutyl)pyridin-3-yl)-7-(((1-methylcyclobutyl)amino)methyl)-1H-pyrrolo[3,2-b]pyridine-5-carboxamide] | 8.30 | 7.72
C[C@H]1CCCN(Cc2cc(C(=O)Nc3cccc([C@]4(Cc5nncn5C)C[C@@H](C#N)C4)c3)nc3c(F)c[nH]c23)C1 [Compound B20, N-(3-((1r,3S)-3-cyano-1-((4-methyl-4H-1,2,4-triazol-3-yl)methyl)cyclobutyl)phenyl)-3-fluoro-7-(((S)-3-methylpiperidin-1-yl)methyl)-1H-pyrrolo[3,2-b]pyridine-5-carboxamide] | 8.74 | 8.41
Cn1cnnc1[C@]1(c2cncc(NC(=O)c3cc(CNC4(C)CC4)cn4ccnc34)c2)C[C@H](C)C1 [Compound A75, N-(5-((1s, 3s)-3-methyl-1-(4-methyl-4H-1,2,4-triazol-3-yl)cyclobutyl)pyridin-3-yl)-6-(((1-methylcyclopropyl)amino)methyl)imidazo[1,2-a]pyridine-8-carboxamide] | 8.77 | 8.26
Cn1ccc2c(CNCC3CCC3)cc(C(=O)Nc3cccc([C@]4(c5nncn5C)C[C@@H](C)C4)c3)nc21 [Compound B45, 4-(((cyclobutylmethyl)amino)methyl)-1-methyl-N-(3-((1s, 3s)-3-methyl-1-(4-methyl-4H-1,2,4-triazol-3-yl)cyclobutyl)phenyl)-1H-pyrrolo[2,3-b]pyridine-6-carboxamide] | 8.77 | 7.78
Cn1cnnc1[C@]1(c2cncc(NC(=O)c3cc(CNCC4CCC4)c4[nH]ccc4n3)c2)C[C@H](C)C1 [Compound B40, 7-{[(cyclobutylmethyl)amino]methyl}-N-{5-[(1r, 3s)-3-methyl-1-(4-methyl-1,2,4-triazol-3-yl)cyclobutyl]pyridin-3-yl}-1H-pyrrolo[3,2-b]pyridine-5-carboxamide] | 9.00 | 8.68
Cn1cnnc1[C@]1(c2cncc(NC(=O)c3cc(CNC4(C)CC4)c4[nH]ccc4n3)c2)C[C@H](C)C1 [Compound B44, N-(5-((1s, 3s)-3-methyl-1-(4-methyl-4H-1,2,4-triazol-3-yl)cyclobutyl)pyridin-3-yl)-7-(((1-methylcyclopropyl)amino)methyl)-1H-pyrrolo[3,2-b]pyridine-5-carboxamide] | 8.72 | 8.05

Further compounds by rising pIC50 (Cbl-b (aa36-427)), results first:

pIC50 (Cbl-b (aa36-427)) | pIC50 (Cbl (aa49-434)) | Compound
9.00 | 8.77 | CC(C)CNCc1cc(C(=O)Nc2cncc([C@]3(c4nncn4C)C[C@@H](C)C3)c2)c2ncc(Cl)n2c1 [Compound A83, 3-chloro-6-((isobutylamino)methyl)-N-(5-((1s, 3s)-3-methyl-1-(4-methyl-4H-1,2,4-triazol-3-yl)cyclobutyl)pyridin-3-yl)imidazo[1,2-a]pyridine-8-carboxamide]
9.10 | 8.48 | C[C@H](NCc1cc(C(=O)Nc2cccc([C@]3(c4nncn4C)C[C@@H](CC#N)C3)c2)nc2c1OCC2(C)C)C1CCC1 [Compound C28, 7-({[(1S)-1-cyclobutylethyl]amino}methyl)-3,3-dimethyl-N-{3-[(1s, 3s)-3-(cyanomethyl)-1-(4-methyl-1,2,4-triazol-3-yl)cyclobutyl]phenyl}-2H-furo[3,2-b]pyridine-5-carboxamide]
9.22 | 8.39 | Cn1cnnc1[C@]1(c2cccc(NC(=O)c3cc(CNC4(C)CC4)cc4ccnn34)c2)C[C@H](C)C1 [Compound A91, N-(3-((1s, 3s)-3-methyl-1-(4-methyl-4H-1,2,4-triazol-3-yl)cyclobutyl)phenyl)-5-(((1-methylcyclopropyl)amino)methyl)pyrazolo[1,5-a]pyridine-7-carboxamide]
